The values that follow come from US4743541A, “Luminescent substrate preparation and its use in specific binding assays” (priority 1985, dated 1988).

Read-outs that look alike come from different tables or passages of the source.

In the experiment the target is T1, horseradish peroxidase (HRP) (Armoracia rusticana, UniProt P00433).
T1 sequence (P00433 31-353): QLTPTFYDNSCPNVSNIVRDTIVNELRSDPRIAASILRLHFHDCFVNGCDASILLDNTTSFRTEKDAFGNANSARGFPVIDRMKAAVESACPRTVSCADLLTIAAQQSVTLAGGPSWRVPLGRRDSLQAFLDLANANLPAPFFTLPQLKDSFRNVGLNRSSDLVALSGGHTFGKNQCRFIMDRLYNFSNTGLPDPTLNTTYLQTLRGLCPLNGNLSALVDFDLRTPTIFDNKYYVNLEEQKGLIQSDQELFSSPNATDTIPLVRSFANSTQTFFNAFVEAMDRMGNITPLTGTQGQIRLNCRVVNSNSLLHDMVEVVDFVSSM
The protocol: A standardized test procedure for measuring luminol light output has been established. To 0.5 ml of 50 mM borate buffer, pH 9.4, are added 0.5 ml of 40 mM luminol in 45 mM NaOH, pH 11.0; 0.5 ml of 4 mM hydrogen peroxide in 0.01M phosphate buffered saline (PBS), pH 7.0; 0.4 ml of deionized water; and 0.1 ml of 200 mU/ml horseradish peroxidase (HRP) to yield a final 2.0 ml volume containing; 10 mM luminol; 1 mM H2 O2; 12.5 mM borate buffer, pH 9.4; and 20 mU HRP in an aqueous solution having a final pH of 9.4. The enzyme HRP is added last, the solution mixed and relative intensity readings taken on an Ames Fluorocolorimeter (Miles Labs, Inc., Elkhart, IN) at various time points from 1 minute to 2 hours.
The chemical synthesis of luminol and other luminescent substrates use chemicals which can inhibit the catalysts used in luminescent reactions. Two of these inhibitory chemicals known to be used in luminol synthesis were added back to a luminescent reaction using the luminol prepared in Example 1 above.

`NN.O=S(=O)(O)O` [Hydrazine Sulfate, hydrazine sulfate]: the “Amount in the luminol that can inhibit the production of light” value is “greater than 100 ppm”. Further, the “Effect on luminescence yield in the reaction” value (in words) is listed as “drastically inhibits”.
Taken in the same sequence, the figures for ammonium sulfide were “greater than 100 ppm” and “drastically inhibits”.
Turning to `N.N.O=S(=O)(O)O` [Ammonium Sulfate, ammonium sulfate], the “Effect on luminescence yield in the reaction” value is on record as “had no effect”. The “% Reaction” value (hrp luminol luminescence, pH 9.4, 30 min) is on record as 100%.
